According to publication PMC10408569, “Recruitment of hexahydroquinoline as anticancer scaffold targeting inhibition of wild and mutants EGFR (EGFR^WT, EGFR^T790M, and EGFR^L858R)” (Journal of Enzyme Inhibition and Medicinal Chemistry, 2023):

Experiments:
[1] = test system: MDA-MB-435; assay: NCI-60 anticancer screening (SRB); assay type: cell-based; conditions: Homo sapiens; MDA-MB-435, melanoma; one dose 10 μM; read-out: Growth Inhibition Percentage (GI %)
[2] = test system: NCI-H322M; assay: NCI-60 anticancer screening (SRB); assay type: cell-based; conditions: Homo sapiens, NSC lung cancer, one dose 10 μM, read-out: Growth Inhibition Percentage (GI %)
[3] = test system: A549/ATCC; assay: NCI-60 anticancer screening (SRB); assay type: cell-based; conditions: Homo sapiens; A549/ATCC, NSC lung cancer; one dose 10 μM; read-out: Growth Inhibition Percentage (GI %)
[4] = test system: SNB-19; assay: NCI-60 anticancer screening (SRB); assay type: cell-based; conditions: Homo sapiens; SNB-19, CNS cancer; one dose 10 μM; read-out: Growth Inhibition Percentage (GI %)
[5] = test system: HCT-15; assay: NCI-60 anticancer screening (SRB); assay type: cell-based; conditions: Homo sapiens; HCT-15, colon cancer; one dose 10 μM; read-out: Growth Inhibition Percentage (GI %)
[6] = test system: T-47D; assay: NCI-60 anticancer screening (SRB); assay type: cell-based; conditions: Homo sapiens, T47D, breast cancer, one dose 10 μM, read-out: Growth Inhibition Percentage (GI %)
[7] = test system: NCI-H460; assay: NCI-60 anticancer screening (SRB); assay type: cell-based; conditions: Homo sapiens; NCI-H460, NSC lung cancer; one dose 10 μM; read-out: Growth Inhibition Percentage (GI %)
[8] = test system: HOP-62; assay: NCI-60 anticancer screening (SRB); assay type: cell-based; conditions: Homo sapiens; HOP-62, NSC lung cancer; one dose 10 μM; read-out: Growth Inhibition Percentage (GI %)
[9] = test system: UACC-257; assay: NCI-60 anticancer screening (SRB); assay type: cell-based; conditions: Homo sapiens; UACC-257, melanoma; one dose 10 μM; read-out: Growth Inhibition Percentage (GI %)
[10] = test system: MDA-MB-231; assay: NCI-60 anticancer screening (SRB); assay type: cell-based; conditions: Homo sapiens; MDA-MB-231, breast cancer; one dose 10 μM; read-out: Growth Inhibition Percentage (GI %)
[11] = test system: SK-MEL-5; assay: NCI-60 anticancer screening (SRB); assay type: cell-based; conditions: Homo sapiens; SK-MEL-5, melanoma; one dose 10 μM; read-out: Growth Inhibition Percentage (GI %)
[12] = test system: HCC-2998; assay: NCI-60 anticancer screening (SRB); assay type: cell-based; conditions: Homo sapiens; HCC-2998, colon cancer; one dose 10 μM; read-out: Growth Inhibition Percentage (GI %)
[13] = test system: SW-620; assay: NCI-60 anticancer screening (SRB); assay type: cell-based; conditions: Homo sapiens; SW-620, colon cancer; one dose 10 μM; read-out: Growth Inhibition Percentage (GI %)
[14] = test system: SR; assay: NCI-60 anticancer screening (SRB); assay type: cell-based; conditions: Homo sapiens, leukemia, one dose 10 μM, read-out: Growth Inhibition Percentage (GI %)
[15] = test system: PC-3; assay: NCI-60 anticancer screening (SRB); assay type: cell-based; conditions: Homo sapiens; PC-3, prostate cancer; one dose 10 μM; read-out: Growth Inhibition Percentage (GI %)
[16] = test system: RPMI-8226; assay: NCI-60 anticancer screening (SRB); assay type: cell-based; conditions: Homo sapiens; RPMI-8226, leukemia; one dose 10 μM; read-out: Growth Inhibition Percentage (GI %)
[17] = test system: NCI 60 cancer cell lines; assay: NCI-60 anticancer screening (SRB), whole panel; assay type: cell-based, human; conditions: mean across the NCI-60 panel; one dose 10 μM
[18] = test system: KM 12; assay: NCI-60 anticancer screening (SRB); assay type: cell-based; conditions: Homo sapiens, KM12; KM 12, colon cancer; one dose 10 μM; read-out: Growth Inhibition Percentage (GI %)
[19] = test system: HT29; assay: NCI-60 anticancer screening (SRB); assay type: cell-based; conditions: Homo sapiens, HT-29; HT29, colon cancer; one dose 10 μM; read-out: Growth Inhibition Percentage (GI %)
[20] = test system: RXF 393; assay: NCI-60 anticancer screening (SRB); assay type: cell-based; conditions: Homo sapiens; RXF 393, renal cancer; one dose 10 μM; read-out: Growth Inhibition Percentage (GI %)
[21] = test system: SK-OV-3; assay: NCI-60 anticancer screening (SRB); assay type: cell-based; conditions: Homo sapiens; SK-OV-3, ovarian cancer; one dose 10 μM; read-out: Growth Inhibition Percentage (GI %)
[22] = test system: OVCAR-5; assay: NCI-60 anticancer screening (SRB); assay type: cell-based; conditions: Homo sapiens; OVCAR-5, ovarian cancer; one dose 10 μM; read-out: Growth Inhibition Percentage (GI %)
[23] = test system: IGROV1; assay: NCI-60 anticancer screening (SRB); assay type: cell-based; conditions: Homo sapiens, IGROV-1; IGROV1, ovarian cancer; one dose 10 μM; read-out: Growth Inhibition Percentage (GI %)
[24] = test system: SN 12C; assay: NCI-60 anticancer screening (SRB); assay type: cell-based; conditions: Homo sapiens, SN12C; SN 12C, renal cancer; one dose 10 μM; read-out: Growth Inhibition Percentage (GI %)
[25] = test system: ACHN; assay: NCI-60 anticancer screening (SRB); assay type: cell-based; conditions: Homo sapiens, renal cancer, one dose 10 μM, read-out: Growth Inhibition Percentage (GI %)
[26] = test system: HCT-116; assay: NCI-60 anticancer screening (SRB); assay type: cell-based; conditions: Homo sapiens; HCT-116, colon cancer; one dose 10 μM; read-out: Growth Inhibition Percentage (GI %)
[27] = test system: SF-539; assay: NCI-60 anticancer screening (SRB); assay type: cell-based; conditions: Homo sapiens; SF-539, CNS cancer; one dose 10 μM; read-out: Growth Inhibition Percentage (GI %)

SMILES | inhibition at 10 µM [1] | inhibition at 10 µM [2] | inhibition at 10 µM [3] | inhibition at 10 µM [4] | inhibition at 10 µM [5] | inhibition at 10 µM [6] | inhibition at 10 µM [7] | inhibition at 10 µM [8] | inhibition at 10 µM [9] | inhibition at 10 µM [10] | inhibition at 10 µM [11] | inhibition at 10 µM [12] | inhibition at 10 µM [13] | inhibition at 10 µM [14] | inhibition at 10 µM [15] | inhibition at 10 µM [16] | GI % mean [17] | inhibition at 10 µM [18] | inhibition at 10 µM [19] | inhibition at 10 µM [20] | also measured
CCOC(=O)C1=C(N)N(c2ccccc2)C2=C(C(=O)CC(C)(C)C2)C1c1ccc(OC)cc1 (racemic) [8f, (±)-Ethyl2-amino-4–(4-methoxyphenyl)-7,7-dimethyl-5-oxo-1-phenyl-1,4,5,6,7,8-hexahydroquinoline-3-carboxylate] | < 10% | < 10% | < 10% | 14% | < 10% | 11% | < 10% | < 10% | < 10% | < 10% | < 10% | < 10% | < 10% | 18% | 18% | 15% | - ((-) = GI % mean less than 10) | < 10% | < 10% | < 10% | inhibition at 10 µM [21]: < 10%; inhibition at 10 µM [22]: < 10%; inhibition at 10 µM [23]: < 10%; inhibition at 10 µM [24]: < 10%; inhibition at 10 µM [25]: < 10%; inhibition at 10 µM [26]: 14%; inhibition at 10 µM [27]: < 10%
CCOC(=O)C1=C(N)N(c2ccc(C)cc2)C2=C(C(=O)CC(C)(C)C2)C1c1ccc(OC)cc1 (racemic) [8g, (±)-Ethyl 2-amino-4–(4-methoxyphenyl)-7,7-dimethyl-1–(4-methylphenyl)-5-oxo-1,4,5,6,7,8-hexahydroquinoline-3-carboxylate] | < 10% | < 10% | < 10% | < 10% | < 10% | < 10% | < 10% | < 10% | < 10% | < 10% | < 10% | < 10% | < 10% | < 10% | < 10% | < 10% | - ((-) = GI % mean less than 10) | < 10% | < 10% | < 10% | inhibition at 10 µM [21]: < 10%; inhibition at 10 µM [22]: < 10%; inhibition at 10 µM [23]: < 10%; inhibition at 10 µM [24]: < 10%; inhibition at 10 µM [25]: < 10%; inhibition at 10 µM [26]: < 10%; inhibition at 10 µM [27]: < 10%
CCOC(=O)C1=C(N)N(c2ccc(Cl)cc2)C2=C(C(=O)CC(C)(C)C2)C1c1ccc(OC)cc1 (racemic) [8h, (±)-Ethyl 2-amino-1–(4-chlorophenyl)-4–(4-methoxyphenyl)-7,7-dimethyl-5-oxo-1,4,5,6,7,8-hexahydroquinoline-3-carboxylate] | < 10% | < 10% | < 10% | < 10% | < 10% | < 10% | < 10% | < 10% | < 10% | < 10% | < 10% | < 10% | < 10% | < 10% | < 10% | < 10% | - ((-) = GI % mean less than 10) | < 10% | < 10% | < 10% | inhibition at 10 µM [21]: < 10%; inhibition at 10 µM [22]: < 10%; inhibition at 10 µM [23]: < 10%; inhibition at 10 µM [24]: < 10%; inhibition at 10 µM [25]: < 10%; inhibition at 10 µM [26]: < 10%; inhibition at 10 µM [27]: < 10%
CCOC(=O)C1=C(N)N(c2ccc(C)cc2)C2=C(C(=O)CC(C)(C)C2)C1c1ccc([N+](=O)[O-])cc1 (racemic) [8j, (±)-Ethyl 2-amino-7,7-dimethyl-1–(4-methylphenyl)-4–(4-nitrophenyl)-5-oxo-1,4,5,6,7,8-hexahydroquinoline-3-carboxylate] | < 10% | < 10% | < 10% | < 10% | < 10% | < 10% | < 10% | < 10% | < 10% | < 10% | < 10% | < 10% | < 10% | < 10% | < 10% | < 10% | - ((-) = GI % mean less than 10) | < 10% | < 10% | < 10% | inhibition at 10 µM [21]: < 10%; inhibition at 10 µM [22]: < 10%; inhibition at 10 µM [23]: < 10%; inhibition at 10 µM [24]: < 10%; inhibition at 10 µM [25]: < 10%; inhibition at 10 µM [26]: < 10%
CCOC(=O)C1=C(N)N(c2ccc(Cl)cc2)C2=C(C(=O)CC(C)(C)C2)C1c1ccc([N+](=O)[O-])cc1 (racemic) [8k, (±)-Ethyl2-amino-1–(4-chlorophenyl)-7,7-dimethyl-4–(4-nitrophenyl)-5-oxo-1,4,5,6,7,8-hexahydroquinoline-3-carboxylate] | < 10% | < 10% | 11% | < 10% | 18% | 27% | < 10% | < 10% | < 10% | < 10% | < 10% | < 10% | < 10% | 32% | 26% | 43% | - ((-) = GI % mean less than 10) | 12% | < 10% | < 10% | inhibition at 10 µM [21]: < 10%; inhibition at 10 µM [22]: < 10%; inhibition at 10 µM [23]: < 10%; inhibition at 10 µM [24]: < 10%; inhibition at 10 µM [25]: 12%; inhibition at 10 µM [26]: 34%; inhibition at 10 µM [27]: < 10%
